For one test, the target named is T1, SRC (Homo sapiens, UniProt P12931).
T1 construct: made in house; host or cells: Sf9 insect cells (baculovirus)
The test is described as follows: radiometric protein kinase assay (33PanQinase Activity Assay). It counts as biochemical. To be noted: panel of 24 kinases, 1 μM ATP, read-out: Inhibition of Kinases IC50. An excerpt: (§1) All protein kinases were expressed in Sf9 insect cells as human recombinant GST-fusion proteins or His-tagged proteins by means of the baculovirus expression system. Kinases were purified by affinity chromatography using either GSH-agarose (Sigma) or Ni-NTH-agarose (Qiagen). The purity of each kinase was checked by SDS-PAGE/silver staining and the identity of each kinase was verified by western blot analysis with kinase specific antibodies or by mass spectroscopy.
(§2) A radiometric protein kinase assay (^33PanQinase® Activity Assay) was used for measuring the kinase activity of the 24 protein kinases. All kinase assays were performed in 96-well FIashPlates™ from Perkin Elmer (Boston, Mass., USA) in a 50 μl reaction volume. The reaction cocktail was pipetted in 4 steps in the following order: • 20 μl of assay buffer • 5 μl of ATP solution (in H2O) • 5 μl of test compound (in 10% DMSO) • 10 μl of substrate/10 μl of enzyme solution (premixed)
(§3) The assay for all enzymes contained 60 mM HEPES-NaOH, pH 7.5, 3 mM MgCl2, 3 mM MnCl2, 3 μM Na-orthovanadate, 1.2 mM DTT, 50 μg/ml PEG20000, 1 μM [γ-^33P]-ATP (approx. 5×10^05 cpm per well).
(§4) The reaction cocktails were incubated at 30° C. for 80 minutes. […] Incorporation of ^33Pi was determined with a microplate scintillation counter (Microbeta Trilux, Wallac). […]

A further test deals with T2, EPHB4 (Homo sapiens, UniProt P54760).
T2 construct: made in house; host or cells: Sf9 insect cells (baculovirus)
T2 sequence (P54760 16-987): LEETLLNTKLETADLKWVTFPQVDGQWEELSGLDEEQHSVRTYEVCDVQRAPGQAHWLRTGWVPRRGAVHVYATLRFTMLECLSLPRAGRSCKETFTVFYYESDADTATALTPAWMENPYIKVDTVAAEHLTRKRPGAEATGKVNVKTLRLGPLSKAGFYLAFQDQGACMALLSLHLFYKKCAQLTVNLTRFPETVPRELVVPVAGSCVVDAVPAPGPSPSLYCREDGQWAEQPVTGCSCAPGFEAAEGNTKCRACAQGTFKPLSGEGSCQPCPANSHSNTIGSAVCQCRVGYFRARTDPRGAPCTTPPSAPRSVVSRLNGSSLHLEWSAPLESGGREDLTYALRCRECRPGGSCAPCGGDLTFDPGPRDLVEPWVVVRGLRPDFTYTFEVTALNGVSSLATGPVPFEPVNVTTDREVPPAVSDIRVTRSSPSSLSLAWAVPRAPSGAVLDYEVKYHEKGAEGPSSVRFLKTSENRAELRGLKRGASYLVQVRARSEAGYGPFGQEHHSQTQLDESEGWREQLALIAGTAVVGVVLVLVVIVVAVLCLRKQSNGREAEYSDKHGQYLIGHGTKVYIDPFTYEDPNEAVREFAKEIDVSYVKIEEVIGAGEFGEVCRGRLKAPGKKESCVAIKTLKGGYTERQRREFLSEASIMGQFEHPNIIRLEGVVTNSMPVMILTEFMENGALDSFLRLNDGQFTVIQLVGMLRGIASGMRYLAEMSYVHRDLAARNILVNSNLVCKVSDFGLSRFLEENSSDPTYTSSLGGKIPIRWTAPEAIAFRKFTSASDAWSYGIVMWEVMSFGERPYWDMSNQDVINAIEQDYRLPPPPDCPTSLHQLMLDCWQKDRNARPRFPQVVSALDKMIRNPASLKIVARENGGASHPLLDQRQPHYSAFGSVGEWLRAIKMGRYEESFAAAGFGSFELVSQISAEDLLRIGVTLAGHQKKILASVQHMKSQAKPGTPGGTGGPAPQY
The description is as above. The format is biochemical. To be noted: panel of 24 kinases, 1 μM ATP, read-out: Inhibition of Kinases IC50. The method, then: (§5) Radicicol A (1) and analogues 3 and 31 were tested for its inhibition in a panel of 24 kinase (AKT1, ARKS, Aurora-A, Aurora-B, B-RAF-VE, CDK2/CycA, CDK4/CycD1, CK2-α1, FAK, EPHB4, ERB2, EGF-R, IGF1-R, SRC, VEGF-R2, VEGF-R3, FLT3, INS-R, MET, PDGFR-β, PLK1, SAK, TIE2, COT) at 10 μM using the procedure described below.
as §1
(§6) A radiometric protein kinase assay (^33PanQinase® Activity Assay) was used for measuring the kinase activity of the 24 protein kinases. All kinase assays were performed in 96-well FIashPlates™ from Perkin Elmer (Boston, Mass., USA) in a 50 μl reaction volume. […]
as §4

Another test addresses T3, PDGFR-beta (Homo sapiens, UniProt P09619).
T3 construct: made in house; host or cells: Sf9 insect cells (baculovirus)
The description is as above. It counts as biochemical. To be noted: for Inhibition of Kinases IC50 / IC50: PDGFR-beta, panel of 24 kinases, 1 μM ATP; for IC50: read-out: Inhibition of Kinases IC50.
Text: as §1, §2, §3
(§7) The reaction cocktails were incubated at 30° C. for 80 minutes. The reaction was stopped with 50 μl of 2% (v/v) H3PO4, plates were aspirated and washed two times with 200 μl of 0.9% (w/v) NaCl or 200 μl H2O. Incorporation of ^33Pi was determined with a microplate scintillation counter (Microbeta Trilux, Wallac). All assays were performed with a BeckmanCoulter/Sagian robotic system.
(§8) Using the same method described above, compound 31 was evaluated in a panel of 127 kinase enzymes.

The target of the next test is T4, VEGF-R3 (Homo sapiens, UniProt P35916).
T4 construct: made in house; host or cells: Sf9 insect cells (baculovirus)
T4 sequence (P35916 25-1363): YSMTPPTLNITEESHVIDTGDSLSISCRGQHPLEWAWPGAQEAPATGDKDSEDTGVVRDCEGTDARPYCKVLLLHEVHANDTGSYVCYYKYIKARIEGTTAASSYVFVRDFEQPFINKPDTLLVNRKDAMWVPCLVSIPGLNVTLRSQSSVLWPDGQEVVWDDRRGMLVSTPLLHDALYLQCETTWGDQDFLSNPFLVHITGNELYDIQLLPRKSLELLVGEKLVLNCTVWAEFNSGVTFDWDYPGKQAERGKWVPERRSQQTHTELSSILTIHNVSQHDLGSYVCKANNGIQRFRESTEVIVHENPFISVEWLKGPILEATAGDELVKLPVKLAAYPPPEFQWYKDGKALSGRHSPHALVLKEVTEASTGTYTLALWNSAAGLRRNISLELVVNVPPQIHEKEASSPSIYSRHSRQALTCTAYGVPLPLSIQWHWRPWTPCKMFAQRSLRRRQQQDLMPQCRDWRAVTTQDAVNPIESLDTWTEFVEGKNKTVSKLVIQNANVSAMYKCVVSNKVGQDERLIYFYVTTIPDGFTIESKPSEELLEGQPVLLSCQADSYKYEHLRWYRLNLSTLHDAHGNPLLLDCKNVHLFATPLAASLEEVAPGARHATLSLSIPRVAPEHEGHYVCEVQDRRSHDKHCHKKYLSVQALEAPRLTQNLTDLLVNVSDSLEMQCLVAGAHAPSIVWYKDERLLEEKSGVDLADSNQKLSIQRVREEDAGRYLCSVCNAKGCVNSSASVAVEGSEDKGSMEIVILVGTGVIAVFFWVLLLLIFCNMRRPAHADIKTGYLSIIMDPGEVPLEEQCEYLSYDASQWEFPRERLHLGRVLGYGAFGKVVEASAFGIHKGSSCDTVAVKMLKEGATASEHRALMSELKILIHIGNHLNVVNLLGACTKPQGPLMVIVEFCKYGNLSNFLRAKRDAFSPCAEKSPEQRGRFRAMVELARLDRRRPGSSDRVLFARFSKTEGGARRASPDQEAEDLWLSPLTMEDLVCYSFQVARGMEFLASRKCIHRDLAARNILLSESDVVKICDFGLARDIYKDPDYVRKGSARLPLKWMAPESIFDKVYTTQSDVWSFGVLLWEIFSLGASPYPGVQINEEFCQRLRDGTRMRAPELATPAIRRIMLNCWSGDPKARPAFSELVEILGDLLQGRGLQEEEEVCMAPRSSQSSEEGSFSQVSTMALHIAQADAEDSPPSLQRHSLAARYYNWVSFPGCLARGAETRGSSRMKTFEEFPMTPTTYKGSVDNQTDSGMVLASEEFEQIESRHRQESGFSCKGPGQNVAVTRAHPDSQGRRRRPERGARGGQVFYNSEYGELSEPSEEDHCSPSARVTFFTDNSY
The description is as above. The format is biochemical. To be noted: for Inhibition of Kinases IC50 / IC50: panel of 24 kinases, 1 μM ATP; for IC50: read-out: Inhibition of Kinases IC50. The method, then: as §5, §1, §2, §3, §7, §8

Another test addresses T5, FLT3 (Homo sapiens, UniProt P36888).
T5 construct: made in house; host or cells: Sf9 insect cells (baculovirus)
T5 sequence (P36888 27-993): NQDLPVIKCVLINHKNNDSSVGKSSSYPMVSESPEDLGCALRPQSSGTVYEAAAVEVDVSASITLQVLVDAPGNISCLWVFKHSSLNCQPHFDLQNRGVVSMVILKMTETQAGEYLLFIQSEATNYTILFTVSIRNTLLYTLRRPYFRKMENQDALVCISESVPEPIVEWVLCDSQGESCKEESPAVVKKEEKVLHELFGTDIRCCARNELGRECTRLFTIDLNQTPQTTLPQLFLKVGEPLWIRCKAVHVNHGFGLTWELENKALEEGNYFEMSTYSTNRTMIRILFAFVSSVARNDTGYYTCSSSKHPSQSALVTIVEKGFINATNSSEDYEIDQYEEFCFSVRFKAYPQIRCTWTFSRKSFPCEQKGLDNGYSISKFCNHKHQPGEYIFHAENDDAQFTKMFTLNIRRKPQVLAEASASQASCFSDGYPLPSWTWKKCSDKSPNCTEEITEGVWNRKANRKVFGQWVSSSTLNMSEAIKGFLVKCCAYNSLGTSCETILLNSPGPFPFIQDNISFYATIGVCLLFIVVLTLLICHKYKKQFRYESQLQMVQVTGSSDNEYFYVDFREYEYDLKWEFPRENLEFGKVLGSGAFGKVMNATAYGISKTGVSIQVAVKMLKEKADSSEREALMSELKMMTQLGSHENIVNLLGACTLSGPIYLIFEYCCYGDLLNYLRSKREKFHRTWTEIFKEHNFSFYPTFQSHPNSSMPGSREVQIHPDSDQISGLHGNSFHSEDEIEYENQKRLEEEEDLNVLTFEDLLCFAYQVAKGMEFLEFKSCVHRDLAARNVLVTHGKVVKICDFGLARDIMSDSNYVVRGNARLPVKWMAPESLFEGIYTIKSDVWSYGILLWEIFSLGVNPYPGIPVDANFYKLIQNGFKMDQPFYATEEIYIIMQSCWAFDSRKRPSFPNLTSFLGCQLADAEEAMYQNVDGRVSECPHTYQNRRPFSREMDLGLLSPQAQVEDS
Described as above. The format is biochemical. To be noted: for Inhibition of Kinases IC50 / IC50: panel of 24 kinases, 1 μM ATP; for IC50: read-out: Inhibition of Kinases IC50. The method, then:
as §5, §1, §2, §3, §7, §8

Test [1] deals with T6, VEGF-R2 (Homo sapiens, UniProt P35968). Described as above. To be noted: for Inhibition of Kinases IC50 / IC50: panel of 24 kinases, 1 μM ATP; for IC50: read-out: Inhibition of Kinases IC50. The format is biochemical. Also noted: made in house; host or cells: Sf9 insect cells (baculovirus). The method, then: as §5, §1, §2, §3, §7, §8
T6 sequence (P35968 20-1356): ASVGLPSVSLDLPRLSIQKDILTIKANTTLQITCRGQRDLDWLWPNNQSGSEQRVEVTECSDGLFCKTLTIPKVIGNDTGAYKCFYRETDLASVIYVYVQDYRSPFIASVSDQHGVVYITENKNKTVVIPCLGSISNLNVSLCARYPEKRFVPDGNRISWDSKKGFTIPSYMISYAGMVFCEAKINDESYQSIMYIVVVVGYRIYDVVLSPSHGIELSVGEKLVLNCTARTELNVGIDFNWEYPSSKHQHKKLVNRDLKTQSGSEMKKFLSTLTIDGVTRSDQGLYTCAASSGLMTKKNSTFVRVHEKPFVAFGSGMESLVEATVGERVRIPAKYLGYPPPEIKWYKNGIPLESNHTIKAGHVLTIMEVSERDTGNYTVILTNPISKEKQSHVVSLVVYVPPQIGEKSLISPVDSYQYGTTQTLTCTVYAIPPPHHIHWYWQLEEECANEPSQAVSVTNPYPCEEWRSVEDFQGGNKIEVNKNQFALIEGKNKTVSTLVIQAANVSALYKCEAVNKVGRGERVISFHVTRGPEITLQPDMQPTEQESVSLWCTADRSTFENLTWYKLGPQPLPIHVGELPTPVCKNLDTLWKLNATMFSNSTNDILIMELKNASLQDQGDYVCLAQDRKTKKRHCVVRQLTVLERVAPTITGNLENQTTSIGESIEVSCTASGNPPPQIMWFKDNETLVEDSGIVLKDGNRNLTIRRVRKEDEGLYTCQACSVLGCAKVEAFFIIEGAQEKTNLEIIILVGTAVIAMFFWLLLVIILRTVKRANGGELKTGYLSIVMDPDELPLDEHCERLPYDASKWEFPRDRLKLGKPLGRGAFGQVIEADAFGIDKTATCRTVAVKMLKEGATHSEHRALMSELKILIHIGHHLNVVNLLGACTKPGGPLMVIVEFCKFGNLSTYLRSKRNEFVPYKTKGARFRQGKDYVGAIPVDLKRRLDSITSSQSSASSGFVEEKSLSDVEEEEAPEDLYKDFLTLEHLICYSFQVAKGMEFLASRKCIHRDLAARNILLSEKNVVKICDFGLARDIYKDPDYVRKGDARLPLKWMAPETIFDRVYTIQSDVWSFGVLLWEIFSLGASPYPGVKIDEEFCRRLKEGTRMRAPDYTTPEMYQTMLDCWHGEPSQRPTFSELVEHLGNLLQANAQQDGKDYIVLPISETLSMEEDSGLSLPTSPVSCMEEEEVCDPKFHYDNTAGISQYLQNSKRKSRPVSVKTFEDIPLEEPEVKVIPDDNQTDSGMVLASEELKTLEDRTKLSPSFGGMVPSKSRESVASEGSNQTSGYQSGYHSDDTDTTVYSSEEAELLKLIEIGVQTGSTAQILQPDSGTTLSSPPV
A further test deals with T7, B-RAF-VE (Homo sapiens, UniProt P15056, V600E).
T7 construct: made in house; host or cells: Sf9 insect cells (baculovirus)
The description is as above. The format is biochemical. To be noted: panel of 24 kinases, 1 μM ATP, read-out: Inhibition of Kinases IC50. The method, then: as §5, §1, §6, §4

Test [2] deals with T6, VEGF-R2. The test is described as follows: VEGF-R2 autophosphorylation in presence of VEGF165 in immortalized HUVECs (ELISA). The format is cell-based. To be noted: 90 min incubation, then VEGF165 for 7 min, read-out: cellular IC50, VEGF-R2 autophosphorylation. The method, then:
The potential efficacy of Compound 31 in vivo was assessed by measuring the level of VEGF-R2 autophosphorylation in the presence of its ligand (VEGF165). Thus immortalized HUVECs known to express high levels of VEGF-R2 were incubated with inhibitor 31 for 90 min. and then stimulated with VEGF165 for 7 min. The level of autophosphorylation was measured by ELISA using antiVEGF-R2 as capture antibody and anti-phosphotyrosine as detection antibody. Results are expressed as percentage of maximal autophosphorylation in the absence of inhibitor (FIGS. 1 and 2).
A number of RALs such as pochonins C and D are substituted with a chlorine atom at the 5 position rather than a methoxy, as with analogue 31. […] The potential efficacy of this compound in vivo was then assessed by measuring the level of VEGF-R2 autophosphorylation in the presence of its ligand (VEGF165). […] The level of autophosphorylation was measured by ELISA using antiVEGF-R2 as capture antibody and anti-phosphotyrosine as detection antibody. Results are expressed as percentage of maximal autophosphorylation in the absence of inhibitor (FIG. 3).
The potential efficacy of compound 31 in vivo was assessed by measuring the level of VEGF-R2 autophosphorylation in the presence of its ligand (VEGF165). […] The level of autophosphorylation was measured by ELISA using antiVEGF-R2 as capture antibody and anti-phosphotyrosine as detection antibody. […]

A further test has as its target TIE2 (Homo sapiens, UniProt Q02763). Briefly: autophosphorylation of TIE2. The format is cell-based. To be noted: cellular autophosphorylation; result in words.
The next test deals with T8, MEK1 (Homo sapiens, UniProt Q02750).
T8 construct: made in house; host or cells: Sf9 insect cells (baculovirus)
The test is described as follows: panel of 127 kinases, radiometric protein kinase assay. It counts as biochemical. To be noted: FIG. 1, result in words.
Text: as §1, §2, §3, §4, §8

The target in a further test is T9, PDGFR-α (Homo sapiens, UniProt P16234).
T9 construct: made in house; host or cells: Sf9 insect cells (baculovirus)
T9 sequence (P16234 24-1089): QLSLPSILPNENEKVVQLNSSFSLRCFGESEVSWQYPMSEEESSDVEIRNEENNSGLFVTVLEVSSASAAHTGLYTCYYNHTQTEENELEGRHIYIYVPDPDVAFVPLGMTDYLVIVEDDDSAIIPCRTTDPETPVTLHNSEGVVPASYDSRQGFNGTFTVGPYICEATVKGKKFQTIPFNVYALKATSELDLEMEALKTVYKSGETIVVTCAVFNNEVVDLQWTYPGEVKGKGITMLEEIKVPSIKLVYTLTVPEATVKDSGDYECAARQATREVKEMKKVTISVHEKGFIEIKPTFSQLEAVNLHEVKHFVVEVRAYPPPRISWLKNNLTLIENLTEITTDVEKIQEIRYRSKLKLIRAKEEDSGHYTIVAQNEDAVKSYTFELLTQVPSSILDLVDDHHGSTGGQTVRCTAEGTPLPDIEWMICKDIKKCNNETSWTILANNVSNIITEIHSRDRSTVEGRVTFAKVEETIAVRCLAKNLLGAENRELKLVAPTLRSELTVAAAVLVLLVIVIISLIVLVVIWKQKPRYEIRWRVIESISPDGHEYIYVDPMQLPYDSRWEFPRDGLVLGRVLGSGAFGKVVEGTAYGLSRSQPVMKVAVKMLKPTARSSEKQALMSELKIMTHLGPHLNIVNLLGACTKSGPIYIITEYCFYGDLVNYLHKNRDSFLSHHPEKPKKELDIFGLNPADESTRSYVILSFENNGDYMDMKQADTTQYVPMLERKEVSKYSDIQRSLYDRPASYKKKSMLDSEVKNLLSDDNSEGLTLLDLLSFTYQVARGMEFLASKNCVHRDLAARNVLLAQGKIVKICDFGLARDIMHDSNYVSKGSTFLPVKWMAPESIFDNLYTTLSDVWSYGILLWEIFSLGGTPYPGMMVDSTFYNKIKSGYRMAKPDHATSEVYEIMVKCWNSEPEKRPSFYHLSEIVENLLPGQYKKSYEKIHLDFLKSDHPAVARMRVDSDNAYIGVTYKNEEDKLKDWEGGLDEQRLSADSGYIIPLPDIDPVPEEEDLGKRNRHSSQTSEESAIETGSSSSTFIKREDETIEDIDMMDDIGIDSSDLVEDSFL
The test is described as above. The format is biochemical. To be noted: FIG. 1, result in words.
Text: as §1, §2, §3, §4, §8

The next test deals with PDGFR-β (Homo sapiens, UniProt P09619). The test is described as follows: PDGFR-β autophosphorylation. The format is cell-based. To be noted: cellular autophosphorylation.
Sequence of PDGFR-β (P09619 33-1106, species assumed): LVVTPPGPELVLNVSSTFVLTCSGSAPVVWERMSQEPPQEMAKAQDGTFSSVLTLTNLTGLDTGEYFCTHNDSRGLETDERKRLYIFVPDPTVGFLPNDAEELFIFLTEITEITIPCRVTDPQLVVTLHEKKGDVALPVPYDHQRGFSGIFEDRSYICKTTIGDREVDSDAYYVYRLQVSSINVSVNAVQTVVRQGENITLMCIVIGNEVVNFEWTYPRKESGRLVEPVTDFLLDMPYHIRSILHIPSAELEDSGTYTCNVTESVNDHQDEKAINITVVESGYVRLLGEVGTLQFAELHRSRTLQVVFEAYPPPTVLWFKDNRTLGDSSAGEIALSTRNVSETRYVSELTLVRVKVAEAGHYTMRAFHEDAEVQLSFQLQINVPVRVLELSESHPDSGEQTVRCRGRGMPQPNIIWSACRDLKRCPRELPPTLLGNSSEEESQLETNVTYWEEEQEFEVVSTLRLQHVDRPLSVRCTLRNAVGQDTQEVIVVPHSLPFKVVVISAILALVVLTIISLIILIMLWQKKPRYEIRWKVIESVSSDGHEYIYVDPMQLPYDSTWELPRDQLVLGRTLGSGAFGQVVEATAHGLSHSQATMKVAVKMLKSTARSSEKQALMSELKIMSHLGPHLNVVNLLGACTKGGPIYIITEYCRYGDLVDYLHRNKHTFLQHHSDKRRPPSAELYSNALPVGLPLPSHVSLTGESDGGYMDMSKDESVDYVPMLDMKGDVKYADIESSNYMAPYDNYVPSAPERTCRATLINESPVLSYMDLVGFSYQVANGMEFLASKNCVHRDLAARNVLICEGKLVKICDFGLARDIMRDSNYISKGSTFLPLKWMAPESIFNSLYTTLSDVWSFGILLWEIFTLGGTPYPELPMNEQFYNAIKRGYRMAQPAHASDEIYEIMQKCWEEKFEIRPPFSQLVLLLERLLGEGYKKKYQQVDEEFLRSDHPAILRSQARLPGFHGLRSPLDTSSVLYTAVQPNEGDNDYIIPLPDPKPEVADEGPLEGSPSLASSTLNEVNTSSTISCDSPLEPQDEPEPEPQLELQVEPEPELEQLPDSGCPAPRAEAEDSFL
[3] abbreviates: panel of 127 kinases, FIG. 1, result in words.

“Also recorded” adds a separate entry of the source.

T3 sequence (P09619 33-1106): as the sequence (P09619 33-1106, species assumed) above

In the case of `COc1cc(O)c2c(c1OC)/C=C/C[C@H](O)[C@H](O)C(=O)/C=C\C[C@H](C)OC2=O` [Compound 1, Radicicol A], the IC50 on SRC is 9600 nM; on EPHB4, 9100 nM; on PDGFR-beta it was 210 nM; at VEGF-R3, 66 nM; on FLT3, 110 nM; at VEGF-R2 [1] it was 26 nM. Moreover, the “Inhibition of Kinases IC50” value on PDGFR-beta (listed as Radicicol A) is “potent inhibitory activity (low nM)”; on PDGFR-beta (listed as radicicol A) it was “potent inhibitory activity”; on VEGF-R3 (listed as Radicicol A), “potent inhibitory activity (low nM)”; at VEGF-R3 (listed as radicicol A) it was “potent inhibitory activity”; at FLT3 (listed as Radicicol A), “potent inhibitory activity (low nM)”; on FLT3 (listed as radicicol A), “potent inhibitory activity”. The “Inhibition of Kinases IC50” value on VEGF-R2 [1] (listed as Radicicol A) is listed as “potent inhibitory activity (low nM)”; at VEGF-R2 [1] (listed as radicicol A) it was “potent inhibitory activity”.
As to `COc1cc(O)c2c(c1)/C=C/C[C@H](O)[C@H](O)C(=O)/C=C\C[C@H](C)OC2=O` [Compound 3, 5-Z-7-oxozeaenol], the IC50 at B-RAF-VE was 6300 nM; at VEGF-R3, 110 nM; on FLT3, 170 nM; at VEGF-R2 [1], 52 nM. Moreover, the “Inhibition of Kinases IC50” value on VEGF-R3, on FLT3 and at VEGF-R2 [1] was “potent inhibitory activity” throughout.
As to `COc1cc(O)c2c(c1Cl)/C=C/C[C@H](O)[C@H](O)C(=O)/C=C\C[C@H](C)OC2=O` [Compound 31], the IC50 on VEGF-R2 [2] came to 440 nM; at PDGFR-beta, 370 nM; on VEGF-R3 it was 210 nM; on FLT3, 1800 nM; against PDGFR-β it was 13000 nM; at VEGF-R2 [1] it was 90 nM. For the same compound, the “Inhibition of Kinases IC50” value on PDGFR-beta, at VEGF-R3, at FLT3 and on VEGF-R2 [1] was “potent inhibitory activity” each time. Moreover, the “inhibitory activity (IC50) in a panel of 127 kinases” value against PDGFR-beta (PDGFR-β, panel of 127 kinases, FIG. 1, result in words) is reported as “nanomolar concentrations; also recorded: nM concentrations”; against VEGF-R3 (setting [3]), “nanomolar concentrations; also recorded: nM concentrations”; against FLT3 (setting [3]), “low micromolar concentrations; also recorded: low μM concentrations”; on MEK1 it was “nanomolar concentrations; also recorded: nM concentrations”; against PDGFR-α it was “nanomolar concentrations; also recorded: nM concentrations”; against VEGF-R2 [1] (setting [3]), “nanomolar concentrations; also recorded: nM concentrations”. The “autophosphorylation of TIE2” value at TIE2 was “unaffected”.
